Laboratory results reported in PMC9428149, “Tackling recalcitrant Pseudomonas aeruginosa infections in critical illness via anti-virulence monotherapy” (Nature Communications, 2022).
Read-outs that look alike come from different tables or passages of the source.

Tests used:
[1] = test system: MvfR-regulated small molecules in PA14; experiment: Production of HAQs, 2-AA, DHQ and AA in PA14 cultures (LC-MS); conditions: PA14, 50µM inhibitor; for % Production AA: anthranilic acid, precursor control
Protocol: The HAQs HHQ, PQS, HQNO, and non-HAQs: 2-AA and DHQ produced by PA14 cells were quantified in the presence of NAMs. The overnight grown starter culture was diluted 1:100 in 5 mL LB media in a glass tube and was allowed to grow in the presence (50 µM) or absence of compound at 37 °C and 200 rpm in an incubator shaker until OD600 was 3. Bacterial cultures were subsequently mixed 1:1 (400 μL: 400 μL) with 100% methanol containing 20 ppm (20 μg mL^−1) of tetradeutero-PQS (PQS-D4) and 10 ppm of tetradeutero-HHQ (HHQ-D4) in a 1.5 mL Eppendorf tube. The mixture was vortexed for 5 seconds and spun down for 5 minutes at 12,000 x g. A 700 μL aliquot of the supernatant was removed and stored in glass vials at −20 °C until further liquid chromatography-mass spectrophotometry (LC/MS) analysis as previously described in Lepine et al., 2003[66]. LC/MC analysis was performed using a Micromass Quattro II triple quadrupole mass spectrometer (Micromass Canada, Pointe-Claire, Canada) in positive electrospray ionization mode, interfaced to an HP1100 HPLC equipped with a 4.5 × 150 mm reverse-phase C8 column.
GraphPad Prism 9.2.0 software was used to plot the IC50 curve against the percent inhibition of these small molecules’ production at each concentration.

[2] = test system: pyocyanin production in PA14; experiment: Pyocyanin production assay; conditions: PA14; 50µM of each inhibitor (method says 10 μM); vs vehicle
[3] = test system: pqsA promoter (PA14 PpqsA-GFPASV); experiment: pqsA-GFP reporter expression; format: cell-based, Pseudomonas aeruginosa; conditions: PA14 PpqsA-GFPASV; 50µM per b210 (method b76 says 10 µM)
Protocol: The expression levels of pqsA, which is representative of the pqsABCDE operon transcription, were monitored in the presence of the MvfR inhibitors using PA14 cells containing the PpqsA-GFPASV, a reporter construct of the pqsA promoter fused to a short half-life GFP gene in, such that quantitative quenching of fluorescence corresponds to pqsA promoter repression[22],[32],[48]. […] GFP fluorescence levels were measured at λex = 485 nm/λem = 535 nm after 10 seconds of shaking every 15 min up to 12 h. The IC50 of PpqsA-GFP expression levels was performed as above using the same 13 different concentrations (0.0122–50 μM) for each of the 13 compounds tested.

[4] = target: T1, MvfR protein (MvfRC87) (Pseudomonas aeruginosa, UniProt Q9I4X0); format: binding; conditions: SPR
T1 construct: The MvfRC87 protein purified as in Xiao et. al., 2006; made in house
Protocol: The selected compounds were tested for their ability to bind to MvfR. Target validation was carried out by using surface plasmon resonance (SPR). The MvfRC87 protein purified as in Xiao et. al., 2006[33] was covalently immobilized on a CM7 Series S sensor chip using an amine coupling reagent kit (GE Healthcare) at the range level of 3000 to 5000 response units (RU). RU was analyzed by Biacore T200 evaluation software 2.0 (GE Healthcare). The relative response units (RUs) 5 seconds before the end of the association were extracted from the double-reference-corrected sensor grams at different concentrations. These responses were plotted against their respective concentrations for MvfR inhibitor alone and in the presence of native MvfR ligand PQS and compared to the calculated responses for the mixture expected for different binding sites.

T1 sequence (Q9I4X0 87-332): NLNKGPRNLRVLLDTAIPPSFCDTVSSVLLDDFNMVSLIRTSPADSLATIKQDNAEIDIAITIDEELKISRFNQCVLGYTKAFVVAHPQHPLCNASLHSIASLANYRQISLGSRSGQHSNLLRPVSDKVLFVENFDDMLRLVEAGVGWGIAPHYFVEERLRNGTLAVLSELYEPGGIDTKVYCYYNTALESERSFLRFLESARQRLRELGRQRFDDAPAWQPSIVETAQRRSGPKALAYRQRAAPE

| Structure (SMILES) | % Production 2-AA [1] [%] | % Production DHQ [1] [%] | % Production HHQ [1] [%] | % Production HQNO [1] [%] | % Production PQS [1] [%] | % Production AA [1] [%] | % Production Pyocyanin [2] [%] | % Production pqsA-GFP [3] [%] | Response Unit (RU) ([4]; Concentration 1.00E-05 M) | Response Unit (RU) ([4]; Concentration 1.00E-06 M) | Response Unit (RU) ([4]; Concentration 1.00E-07 M) | Response Unit (RU) ([4]; Concentration 1.00E-08 M) | Response Unit (RU) ([4]; Concentration 3.16E-06 M) | Response Unit (RU) ([4]; Concentration 3.16E-07 M) | Response Unit (RU) ([4]; Concentration 3.16E-08 M) |
| --- | --- | --- | --- | --- | --- | --- | --- | --- | --- | --- | --- | --- | --- | --- | --- |
| N#Cc1ccc(NC(=O)CC(=O)Nc2cccc(Cl)c2)cc1 [D71] | 57 | 92 | 106 | 127 | 105 | 207 | 13 | 10 | 31.7 | 19.5 | 5.9 | 2.4 | 26.8 | 11.4 | 3.1 |
| Cc1cc(F)ccc1NCC(=O)Nc1ccc(C#N)cc1 [M17] | 101 | 135 | 3 | 17 | 11 | 100 | 67 | 32 | 18.8 | 6.7 | 1.3 | 0.7 | 12.6 | 3 | 0.7 |
| N#Cc1ccc(NC(=O)CC(=O)Nc2ccc(Oc3ccccc3)cc2)c(N)c1 [D62] | 10 | 16 | 2 | 13 | 9 | 107 | 7 | 6 | – | – | – | – | – | – | – |
| Cc1cc(F)ccc1NCC(=O)Nc1ccc(F)cc1 [G4] | 80 | 85 | 95 | 92 | 88 | – | 84 | 92 | – | – | – | – | – | – | – |
| Cc1cc(F)ccc1OCC(=O)Nc1ccc(C#N)cc1 [G5] | 63 | 83 | 114 | 111 | 114 | 54 | 98 | 98 | – | – | – | – | – | – | – |
| N#Cc1ccc(NC(=O)CCC(=O)Nc2ccc(F)cc2)cc1 [D47] | 100 | 100 | 95 | 93 | 94 | 42 | 99 | 78 | – | – | – | – | – | – | – |
| N#Cc1ccc(NC(=O)CC(=O)Nc2ccc(NC(=O)C(F)(F)F)cc2)cc1 [D54] | 117 | 108 | 103 | 101 | 101 | 82 | 94 | 85 | – | – | – | – | – | – | – |
| O=C(CC(=O)Nc1ccc(Oc2ccccc2)cc1)Nc1ccc(Br)cc1 [D64] | 78 | 85 | 88 | 88 | 100 | 50 | 48 | 61 | – | – | – | – | – | – | – |
| N#Cc1ccc(NC(=O)CNc2ccc(F)cc2)cc1 [G8] | 112 | – | 87 | 108 | 124 | – | 86 | 63 | – | – | – | – | – | – | – |
| Cc1ccccc1NCC(=O)Nc1ccc(C#N)cc1 [G9] | 64 | 59 | 76 | 92 | 124 | – | 94 | 93 | – | – | – | – | – | – | – |
| Cc1cc(F)ccc1N1CCCC(NC(=O)c2ccc(C#N)cc2)C1 (stereo not drawn) [D38] | 101 | 84 | 98 | 100 | 96 | 54 | 108 | 90 | – | – | – | – | – | – | – |
| CC(=O)Nc1ccc(NC(=O)CC(=O)Nc2ccc(C#N)cc2)cc1 [D53] | 93 | 98 | 75 | 85 | 88 | 56 | 103 | 85 | – | – | – | – | – | – | – |
| O=C(CC(=O)Nc1ccc([N+](=O)[O-])cc1)Nc1ccc(Oc2ccccc2)cc1 [D58] | 22 | 45 | 20 | 23 | 19 | 101 | 6 | 9 | – | – | – | – | – | – | – |
| Cc1cc(F)ccc1NC(C)C(=O)Nc1ccc(C#N)cc1 (stereo not drawn) [G6] | 152 | – | 106 | 131 | 115 | – | 110 | 87 | – | – | – | – | – | – | – |
| N#Cc1ccc(NC(=O)CC(=O)Nc2ccc([N+](=O)[O-])cc2)cc1 [D51] | 7 | 12 | 3 | 18 | 6 | 263 | 3 | 10 | – | – | – | – | – | – | – |
| O=C(CC(=O)Nc1ccc(Oc2ccccc2)cc1)Nc1ccc(F)cc1 [D68] | 84 | 109 | 121 | 121 | 137 | 127 | 33 | 52 | – | – | – | – | – | – | – |
| N#Cc1ccc(NC(=O)CC(=O)Nc2ccc(C(=O)C(F)(F)F)cc2)cc1 [D50] | 140 | 89 | 107 | 103 | 104 | 176 | 84 | 102 | – | – | – | – | – | – | – |
| N#Cc1ccc(NC(=O)C(=O)Nc2ccc(F)cc2)cc1 [D37] | 103 | 105 | 98 | 99 | 110 | 90 | 106 | 97 | – | – | – | – | – | – | – |
| N#Cc1ccc(NC(=O)CCNc2ccc(F)cc2)cc1 [D34] | 113 | 100 | 97 | 96 | 97 | 101 | 91 | 80 | – | – | – | – | – | – | – |
| CC(=O)c1ccc(NC(=O)CC(=O)Nc2ccc(C#N)cc2)cc1 [D49] | 90 | 106 | 120 | 101 | 119 | 131 | 66 | 28 | – | – | – | – | – | – | – |
